# Results published in US9309222B2, “Phenyl linked quinolinyl modulators of RORγt” (Janssen Pharmaceutica NV, priority 2012, dated 2016).
# Counter-ions that a name gives are not always drawn.
# What was measured:
# [1] = target: T1, human RORγt ligand binding domain (RORγt LBD) (Homo sapiens, UniProt P51449); test: RORγt ThermoFluor assay (thermal shift, ligand binding affinity); settings: estimated from concentration response of thermal shift
# T1 construct: His-tag (N); TurboTEV protease cleavage site (ENLYFQG) (N); made in house; host or cells: E. coli (pHIS1, modified pET vector)
# T1 sequence (P51449 with tags, fused parts or gaps): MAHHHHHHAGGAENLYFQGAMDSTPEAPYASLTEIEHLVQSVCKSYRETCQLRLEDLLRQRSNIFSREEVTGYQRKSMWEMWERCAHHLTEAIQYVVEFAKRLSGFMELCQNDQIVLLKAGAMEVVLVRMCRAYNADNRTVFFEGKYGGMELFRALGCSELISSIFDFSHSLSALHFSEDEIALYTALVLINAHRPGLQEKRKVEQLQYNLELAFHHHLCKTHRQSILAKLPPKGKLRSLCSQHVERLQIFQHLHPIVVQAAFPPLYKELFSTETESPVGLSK
# Description: This approach is applicable to a wide variety of systems, and rigorous in theoretical interpretation through quantitation of equilibrium binding constants (KD).
# The shift in the melting point described as a ΔTm is proportional to the concentration and affinity of the ligand.
# RORγt ThermoFluor® Assay Construct
# Protein and compound solutions are dispensed into black 384-well polypropylene PCR microplates (Abgene) and overlayed with silicone oil (1 μL Fluka, type DC 200) to prevent evaporation.
# Fluorescence was measured by continuous illumination with UV light (Hamamatsu LC6) supplied via fiber optic and filtered through a band-pass filter (380-400 nm; >6 OD cutoff). Fluorescence emission of the entire 384-well plate was detected by measuring light intensity using a CCD camera (Sensys, Roper Scientific) filtered to detect 500±25 nm, resulting in simultaneous and independent readings of all 384 wells. Images were collected at each temperature, and the sum of the pixel intensity in a given area of the assay plate was recorded versus temperature. Reference wells contained RORγt without compounds, and the assay conditions were as follows: • 0.065 mg/mL RORγt • 60 μM 1,8-ANS • 100 mM Hepes, pH 7.0 • 10 mM NaCl • 2.5 mM GSH • 0.002% Tween-20
# Project compounds were arranged in a pre-dosed mother plate (Greiner Bio-one) wherein compounds are serially diluted in 100% DMSO by 1:2 from a high concentration of 10 mM over 12 columns within a series (column 12 is a reference well containing DMSO, no compound).
# The compounds were robotically dispensed directly into assay plates (1×=[…]) using a Hummingbird capillary liquid handling instrument (Digilab). Following compound dispense, protein and dye in buffer was added to achieve the final assay volume of 3 μL, followed by 1 μL of silicone oil.
# [2] = target: T2, human RORγt LBD (Homo sapiens, UniProt P51449); test: RORγt reporter assay (GAL4-RORγt LBD luciferase in HEK293T cells); format: cell-based; settings: for IC50: HEK293T cells, 24 hours compound treatment; for inhibition at 6 µM: HEK-293T, read-out: RORγt reporter Assay, % inhibition @ 6 μM, HEK293T cells, 6 μM compound
# T2 construct: expressed in transfected cells
# T2 sequence (P51449 258-518): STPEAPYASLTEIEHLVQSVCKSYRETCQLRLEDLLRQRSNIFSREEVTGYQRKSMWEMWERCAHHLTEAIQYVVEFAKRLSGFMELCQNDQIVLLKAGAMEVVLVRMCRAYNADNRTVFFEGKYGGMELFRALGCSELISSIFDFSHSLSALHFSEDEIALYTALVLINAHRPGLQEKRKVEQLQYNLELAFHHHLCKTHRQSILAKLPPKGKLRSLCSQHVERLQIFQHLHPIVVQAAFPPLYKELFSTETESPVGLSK
# Source text: A reporter assay was used to test functional activity of RORγt modulatory compounds on transcriptional activation driven by the RORγt LBD. Cells used in the assay were co-transfected with two constructs. The first construct, pBIND-RORγt LBD, contained the wild type human RORγt LBD fused to the DNA binding domain of the GAL4 protein. The second construct, pGL4.31 (Promega Cat no. C935A), contained multiple GAL4 responsive DNA elements upstream of firefly luciferase. […] The mutant construct was called pBIND-RORγt-AF2.
# The pBIND vector contains the GAL4 DNA Binding Domain (GAL4 DBD) and the renilla luciferase gene under control of the SV40 promoter. Renilla luciferase expression serves as a control for transfection efficiency and cell viability.
# The reporter assay was performed by transiently transfecting HEK293T cells with 5 ng of pBIND-RORγt LBD or pBIND-RORγt LBD-AF2 and 5 μg pGL4.31 (Promega Cat no. C935A) using Fugene 6 (Invitrogen Cat no. E2691) at a 1:6 ratio of DNA:Fugene 6 in a T-75 flask in which cells were at least 80% confluent. Twenty four hours after bulk transfection, cells were plated into 96-well plates at 50,000 cells/well in phenol-red free DMEM containing 5% Lipid Reduced FCS and Pen/Strep. Six hours after plating, cells were treated with compounds for 24 hours. Media was removed and cells were lysed with 50 μL 1× Glo Lysis Buffer (Promega). Dual Glo Luciferase Reagent (50 μL/well) was then added and firefly luciferase luminescence was read on an Envision after a ten minute incubation. Finally, Stop and Glo reagent (50 μL/well) was added and renilla luciferase luminescence was read on an Envision after a ten minute incubation. To calculate the effect of compounds on RORγt activity, the ratio of firefly to renilla luciferase was determined and plotted against compound concentration. Agonist compounds increase RORγt-driven luciferase expression, and antagonist or inverse agonist compounds decrease luciferase expression.
Kd [1] [nM],IC50 [2] [nM],inhibition at 6 µM [2] [%],Compound
1800,~4000,75,"Cn1cncc1C(O)(c1cccnc1)c1ccc2ncc(-c3ccccc3)c(Cl)c2c1 (stereo not drawn) [Example 51, (4-Chloro-3-phenylquinolin-6-yl)(1-methyl-1H-imidazol-5-yl)pyridin-3-ylmethanol•TFA]"
1300,~3000,80,"OC(c1cccnc1)(c1cccc(Cl)c1)c1ccc2ncc(-c3ccccc3)c(Cl)c2c1 (stereo not drawn) [Example 52, (3-Chlorophenyl)(4-chloro-3-phenylquinolin-6-yl)pyridin-3-ylmethanol]"
950,~2000,61,"Cn1cncc1C(O)(c1ccncc1)c1ccc2ncc(-c3ccccc3)c(Cl)c2c1 (stereo not drawn) [Example 53, (4-Chloro-3-phenylquinolin-6-yl)(1-methyl-1H-imidazol-5-yl)pyridin-4-ylmethanol•TFA]"
330,820,92,"COc1ccc(C(O)(c2cccnc2)c2ccc3nc(Cl)c(-c4ccccc4)c(Cl)c3c2)cc1 (stereo not drawn) [Example 55, (2,4-Dichloro-3-phenylquinolin-6-yl)(4-methoxyphenyl)(pyridin-3-yl)methanol]"
2200,~6000,40,"COc1cccc(C(O)(c2cccnc2)c2ccc3ncc(-c4ccccc4)c(Cl)c3c2)c1 (stereo not drawn) [Example 58, (4-Chloro-3-phenylquinolin-6-yl)(3-methoxyphenyl)pyridin-3-ylmethanol]"
4400,~6000,37,"COc1ccc(C(O)(c2cccnc2)c2ccc3ncc(-c4ccccc4)c(Cl)c3c2)cc1 (stereo not drawn) [Example 59, (4-Chloro-3-phenylquinolin-6-yl)(4-methoxyphenyl)pyridin-3-ylmethanol]"
1300,~1000,86,"OC(c1ccc(Cl)nc1)(c1cccc(Cl)c1)c1ccc2ncc(-c3ccccc3)c(Cl)c2c1 (stereo not drawn) [Example 60, (3-Chlorophenyl)(4-chloro-3-phenylquinolin-6-yl)(6-chloropyridin-3-yl)methanol]"
1800,2000,80,"OC(c1ccc(Cl)nc1)(c1cccc(F)c1)c1ccc2ncc(-c3ccccc3)c(Cl)c2c1 (stereo not drawn) [Example 61, (4-Chloro-3-phenylquinolin-6-yl)(6-chloropyridin-3-yl)(3-fluorophenyl)methanol]"
500,~4000,87,"CN(C)CCN(C)c1nc2ccc(C(O)(c3ccncc3)c3cncn3C)cc2c(Cl)c1-c1ccccc1 (stereo not drawn) [Example 64, (4-Chloro-2-{[2-(dimethylamino)ethyl](methyl)amino}-3-phenylquinolin-6-yl)(1-methyl-1H-imidazol-5-yl)pyridin-4-ylmethanol•TFA]"
8500,~2000,83,"Cn1cncc1C(O)(c1ccncc1)c1ccc2nc(N3CCC(O)CC3)c(-c3ccccc3)c(Cl)c2c1 (stereo not drawn) [Example 72, 1-{4-Chloro-6-[hydroxy(1-methyl-1H-imidazol-5-yl)pyridin-4-ylmethyl]-3-phenylquinolin-2-yl}piperidin-4-ol•TFA]"
420,~2000,88,"COC1CCN(c2nc3ccc(C(O)(c4ccncc4)c4cncn4C)cc3c(Cl)c2-c2ccccc2)CC1 (stereo not drawn) [Example 75, [4-Chloro-2-(4-methoxypiperidin-1-yl)-3-phenylquinolin-6-yl](1-methyl-1H-imidazol-5-yl)pyridin-4-ylmethanol•TFA]"
1100,~4000,75,"Cn1cncc1C(O)(c1ccncc1)c1ccc2nc(N3CCN(c4ccccc4)CC3)c(-c3ccccc3)c(Cl)c2c1 (stereo not drawn) [Example 77, [4-Chloro-3-phenyl-2-(4-phenylpiperazin-1-yl)quinolin-6-yl](1-methyl-1H-imidazol-5-yl)pyridin-4-ylmethanol•TFA]"
270,~2000,92,"CCCCc1c(-c2ccccc2)c(Cl)nc2ccc(C(O)(c3ccncc3)c3cncn3C)cc12 (stereo not drawn) [Example 78, (4-Butyl-2-chloro-3-phenylquinolin-6-yl)(1-methyl-1H-imidazol-5-yl)pyridin-4-ylmethanol•TFA]"
510,1200,73,"COc1nc2ccc(C(O)(c3cccnc3)c3cccc(Cl)c3)cc2c(OC)c1-c1ccccc1 (stereo not drawn) [Example 79, (3-Chlorophenyl)(2,4-dimethoxy-3-phenylquinolin-6-yl)pyridin-3-ylmethanol•TFA]"
170,320,93,"CCOc1nc2ccc(C(O)(c3cccnc3)c3cccc(Cl)c3)cc2c(Cl)c1-c1ccccc1 (stereo not drawn) [Example 81, (4-Chloro-2-ethoxy-3-phenylquinolin-6-yl)(3-chlorophenyl)pyridin-3-ylmethanol•TFA]"
560,~4000,71,"CCOc1nc2ccc(C(O)(c3ccncc3)c3cncn3C)cc2c(OCC)c1-c1ccccc1 (stereo not drawn) [Example 82, (2,4-Diethoxy-3-phenylquinolin-6-yl)(1-methyl-1H-imidazol-5-yl)pyridin-4-ylmethanol•TFA]"
4200,> 6000,-3,"CCCCc1c(-c2ccccc2)cnc2ccc(C(O)(c3ccncc3)c3cncn3C)cc12 (stereo not drawn) [Example 83, (4-Butyl-3-phenylquinolin-6-yl)(1-methyl-1H-imidazol-5-yl)pyridin-4-ylmethanol•TFA]"
130,640,92,"CC(C)Oc1c(-c2ccccc2)c(Cl)nc2ccc(C(O)(c3ccncc3)c3cncn3C)cc12 (stereo not drawn) [Example 85, [2-Chloro-4-(1-methylethoxy)-3-phenylquinolin-6-yl](1-methyl-1H-imidazol-5-yl)pyridin-4-ylmethanol•TFA]"
220,200,97,"CC(C)(C)OC(=O)N1CCC(C(O)(c2cccnc2)c2ccc3nc(Cl)c(-c4ccccc4)c(Cl)c3c2)CC1 (stereo not drawn) [Example 91, tert-Butyl 4-[(2,4-dichloro-3-phenylquinolin-6-yl)(hydroxy)pyridin-3-ylmethyl]piperidine-1-carboxylate]"
1200,> 6000,49,"OC(c1cccnc1)(c1ccc2nc(Cl)c(-c3ccccc3)c(Cl)c2c1)C1CCCNC1 (stereo not drawn) [Example 93, (2,4-Dichloro-3-phenylquinolin-6-yl)(piperidin-3-yl)pyridin-3-ylmethanol•TFA]"
